Key:
[1] = system: rat génétiquement hypertendu: Rat OKAMOTO; assay: Antihypertensive activity in spontaneously hypertensive rats (tail-cuff systolic pressure and heart rate after oral dosing); format: in vivo
Description: Des rats mâles âgés de 13 à 21 semaines présentant une hypertension spontanée génétiquement transmissible (souche OKAMOTO provenance IFFA CREDO) sont placés dans une enceinte thermostatée à 38°C. Les rats sont laissés en situation libre. La pression artérielle est mesurée par un sphygmomanomètre Narco Biosystem. Un manchon est placé à la base de la queue et un détecteur enregistre le pouls en aval du manchon. Celui-ci est gonflé jusqu'à suppression du pouls il est ensuite progressivement dégonflé. La pression mesurée à la reprise des battements cardiaques est la pression artérielle systolique. On calcule la fréquence cardiaque à partir de l'enregistrement du pouls artériel. Les produits à étudiar sont mis en suspension el administrés par voie orale sous un volume de 1 ml pour 100 g de poids corporel. Les mesures sont répétées à intervalles réguliers.
Les valeurs moyennes avant traitement pour les différents lots de rats sont pour la pression artérielle systolique de 190 à 200 mmHg et pour la fréquence cardiaque de 305 à 350 battements par minute.
Le tableau III ci-après donne la moyenne des variations de la pression systolique (mmHg) de la fréquence cardisque (battements/minute) et les écarts type à la moyenne obtenus 1 heure 3 heures et 5 heures après administration orale.

[2] = system: effets β1 (augmentation de la force contractile du myocarde) de l'isoprénaline; assay: β-blocking activity: inhibition of the β1 effects of intravenous isoprenaline in anaesthetised dogs; format: in vivo, chiens; details: dog; for inhibition at 0.001 mg/kg / inhibition at 0.01 mg/kg / inhibition at 0.1 mg/kg / inhibition at 0.003 mg/kg: Canis lupus familiaris, iv, inhibition given with negative sign, read-out: % d'inhibition des effets β1^(+) de l'Isoprénaline; for inhibition at 0.001 mg/kg: 0,001 mg/kg I.V.; for inhibition at 0.01 mg/kg: 0,010 mg/kg I.V.; for inhibition at 0.1 mg/kg: 0,100 mg/kg I.V.; for inhibition at 0.003 mg/kg: 0,003 mg/kg I.V.
Description: (§1) Des chiens tout-venants mâles ou femelles sont anesthésiés au mébubarbital sodique (30 mg/kg I.V.) et ventilés artificiellement par une pompe Pesty RPP. Ils sont supplémentés en oxygène.
(§2) On mesure: • - la pression carotidienne systolique et diastolique • - la force contractile du myocarde.
(§3) Les signaux sont amplifiés et enregistrés sur Dynograph Beckman.
(§4) L'activité β bloquante adrénergique a été étudiée vis-à-vis des effets β1 (augmentation de la force contractile du myocarde) et des effets P2 (diminution de la pression artérielle disstolique) de l'isoprénaline administrée par voie intraveineuse.
(§5) On calcule le pourcentsge d'inhibition des effets β1 et des effets β2 de l'isoprénaline en fonction des doses (mg.kg I.V.) des différents exemples.
(§6) Les exemples sont injectés dans le veine saphène aux doses (exprimées en base) de: 0,0003 0,001 0,003 0,01 0,1 1,0 et 4,0 ou 8,0 mg.kg-1.

[3] = system: effets β2 (diminution de la pression artérielle diastolique) de l'isoprénaline; assay: β-blocking activity: inhibition of the β2 effects of intravenous isoprenaline in anaesthetised dogs; format: in vivo, chiens; details: dog; for inhibition at 0.001 mg/kg / inhibition at 0.01 mg/kg / inhibition at 0.1 mg/kg / inhibition at 0.003 mg/kg: Canis lupus familiaris, iv, inhibition given with negative sign, read-out: % d'inhibition des effets β2^⊕ de l'Isoprénaline; for inhibition at 0.001 mg/kg: 0,001 mg/kg I.V.; for inhibition at 0.01 mg/kg: 0,010 mg/kg I.V.; for inhibition at 0.1 mg/kg: 0,100 mg/kg I.V.; for inhibition at 0.003 mg/kg: 0,003 mg/kg I.V.
Description: as §1, §2, §3, §4, §5, §6

[4] = 128 mg.kg^-1 V.O, T+3 heures, mean
[5] = 128 mg.kg^-1 V.O, T+5 heures, mean
[6] = 0.001 mg.kg^-1 voie intraveineuse
[7] = 0.003 mg.kg^-1 voie intraveineuse
[8] = 0.01 mg.kg^-1 voie intraveineuse
[9] = 0.1 mg.kg^-1 voie intraveineuse
[10] = 1.0 mg.kg^-1 voie intraveineuse
[11] = 4.0 mg.kg^-1 voie intraveineuse
[12] = 8.0 mg.kg^-1 voie intraveineuse

| Structure (SMILES) | Fréquence cardiaque Δ (battements/min) T+1 heure m (sm) ([1]; 128 mg.kg^-1 V.O, T+1 heure) | Pression systolique Δ (mmHg) T+1 heure m (sm) ([1]; 128 mg.kg^-1 V.O, T+1 heure) | Fréquence cardiaque Δ (battements/min) T+3 heures m (sm) ([1]; 128 mg.kg^-1 V.O, T+3 heures) | Pression systolique Δ (mmHg) T+3 heures m (sm) ([1]; 128 mg.kg^-1 V.O, T+3 heures) | Fréquence cardiaque Δ (battements/min) T+5 heures m (sm) ([1]; 128 mg.kg^-1 V.O, T+5 heures) | Pression systolique Δ (mmHg) T+5 heures m (sm) ([1]; 128 mg.kg^-1 V.O, T+5 heures) | inhibition at 0.001 mg/kg [2] [%] | inhibition at 0.01 mg/kg [2] [%] | inhibition at 0.1 mg/kg [2] [%] | inhibition at 0.001 mg/kg [3] [%] | inhibition at 0.01 mg/kg [3] [%] | inhibition at 0.1 mg/kg [3] [%] | inhibition at 0.003 mg/kg [2] [%] | inhibition at 0.003 mg/kg [3] [%] | Fréquence cardiaque Δ (battements/min) T+1 heure m (sm) ([1]; 64 mg.kg^-1 V.O, T+1 heure) | Pression systolique Δ (mmHg) T+1 heure m (sm) ([1]; 64 mg.kg^-1 V.O, T+1 heure) | Fréquence cardiaque Δ (battements/min) T+3 heures m (sm) ([1]; 64 mg.kg^-1 V.O, T+3 heures) | Pression systolique Δ (mmHg) T+3 heures m (sm) ([1]; 64 mg.kg^-1 V.O, T+3 heures) | Fréquence cardiaque Δ (battements/min) T+5 heures m (sm) ([1]; 64 mg.kg^-1 V.O, T+5 heures) | Pression systolique Δ (mmHg) T+5 heures m (sm) ([1]; 64 mg.kg^-1 V.O, T+5 heures) | other results |
| --- | --- | --- | --- | --- | --- | --- | --- | --- | --- | --- | --- | --- | --- | --- | --- | --- | --- | --- | --- | --- | --- |
| CC(C)NCC(O)COc1ccc(NC(=O)Cc2ccsc2)cc1C#N (stereo not shown) [exemple 10, 1-[2-cyano 4-(3-thiénylacétamido)phénoxy] 3-isopropylamino 2-propanol] | +25 (15) battements/min | -13 (12) mmHg | +28 (7) battements/min | -5 (9) mmHg | +25 (7) battements/min | -26 (8) mmHg | -22 | -47 | -91 | -21 | -33 | -39 |  |  |  |  |  |  |  |  |  |
| CC(C)NCC(O)COc1ccc(NC(=O)Cc2cccs2)cc1C#N (stereo not shown) [exemple 8, 1-[2-cyano 4-(2-thiénylacétamido)phénoxy] 3-isopropylamino 2-propanol] | +31 (11) battements/min | -39 (8) mmHg | +36 (7) battements/min | -31 (9) mmHg | +12 (13) battements/min | -25 (5) mmHg | -5 | -38 | -64 | 0 | 0 | 0 | -12 | 0 |  |  |  |  |  |  | Pression systolique Δ (mmHg) T+1 heure m ([1]; 128 mg.kg^-1 V.O, T+1 heure, mean): -39 mmHg; Fréquence cardiaque Δ (battements/minute) T + 3 heures m [1, 4]: +36 battements/minute; Pression systolique Δ (mmHg) T+3 heures m [1, 4]: -31 mmHg; Fréquence cardiaque Δ (battements/minute) T + 5 heures m [1, 5]: +12 battements/minute; Pression systolique Δ (mmHg) T+5 heures m [1, 5]: -25 mmHg; Pourcentages d'inhibition des effets β1 de l'Isoprénaline [2, 6]: 5%; Pourcentages d'inhibition des effets β1 de l'Isoprénaline [2, 7]: 12%; Pourcentages d'inhibition des effets β1 de l'Isoprénaline [2, 8]: 38%; Pourcentages d'inhibition des effets β1 de l'Isoprénaline [2, 9]: 64%; Pourcentages d'inhibition des effets β1 de l'Isoprénaline [2, 10]: 86%; Pourcentages d'inhibition des effets β1 de l'Isoprénaline [2, 11]: 100%; Pourcentages d'inhibition des effets β2 de l'Isoprénaline [3, 10]: 16%; Pourcentages d'inhibition des effets β2 de l'Isoprénaline [3, 11]: 100% |
| CC(C)(C)NCC(O)COc1ccc(NC(=O)Cc2ccsc2)cc1Br (stereo not shown) [exemple 41, 1-[2-bromo 4-(3-thiénylacétamido)phénoxy] 3-terbutylamino 2-propanol] |  |  |  |  |  |  | -12 | -83 | -97 | -3 | -31 | -55 | -49 | 0 | +57 (18) battements/min | -44 (14) mmHg | +55 (15) battements/min | -30 (10) mmHg | +68 (16) battements/min | -33 (12) mmHg |  |
| CC(C)(C)NCC(O)COc1ccc(NC(=O)Cc2ccsc2)cc1C#N (stereo not shown) [exemple 9, 1-[2-cyano 4-(3-thiénylacétamido)phénoxy] 3-terbutylamino 2-propanol] |  |  |  |  |  |  | -22 | -91 | -100 | 0 | -8 | -42 | -74 | 0 | +27 (11) battements/min | -16 (4) mmHg | +13 (13) battements/min | -25 (8) mmHg | +13 (13) battements/min | -38 (6) mmHg | Pourcentages d'inhibition des effets β1 de l'Isoprénaline [2, 6]: 22%; Pourcentages d'inhibition des effets β1 de l'Isoprénaline [2, 7]: 74%; Pourcentages d'inhibition des effets β1 de l'Isoprénaline [2, 8]: 91%; Pourcentages d'inhibition des effets β1 de l'Isoprénaline [2, 9]: 100%; Pourcentages d'inhibition des effets β1 de l'Isoprénaline [2, 10]: 100%; Pourcentages d'inhibition des effets β1 de l'Isoprénaline [2, 12]: 100%; Pourcentages d'inhibition des effets β2 de l'Isoprénaline [3, 8]: 8%; Pourcentages d'inhibition des effets β2 de l'Isoprénaline [3, 9]: 42%; Pourcentages d'inhibition des effets β2 de l'Isoprénaline [3, 10]: 100%; Pourcentages d'inhibition des effets β2 de l'Isoprénaline [3, 12]: 100% |
| CC(C)NCC(O)COc1ccc(NC(=O)Cc2ccsc2)cc1Br (stereo not shown) [exemple 42, 1-[2-bromo 4-(3-thiénylacétamido)phénoxy] 3-isopropylamino 2-propanol] |  |  |  |  |  |  | -29 | -70 | -100 | 0 | 0 | 0 | -51 | 0 | +50 (19) battements/min | -43 (8) mmHg | +17 (12) battements/min | -55 (7) mmHg | +33 (12) battements/min | -51 (10) mmHg |  |
| CC(C)(C)NCC(O)COc1ccc(NC(=O)Cc2cccs2)cc1Br (stereo not shown) [exemple 39, 1-[2-bromo 4-(2-thiénylacétamido)phénoxy] 3-terbutylamino 2-propanol] | +47 (15) battements/min | -33 (9) mmHg | +56 (4) battements/min | -34 (11) mmHg | +47 (4) battements/min | -43 (9) mmHg | -11 | -89 | -100 | 0 | -5 | -49 | -65 | 0 |  |  |  |  |  |  |  |
| CC(C)(C)NCC(O)COc1ccc(NC(=O)Cc2cccs2)cc1F (stereo not shown) [exemple 47, 1-[2-fluoro 4-(2-thiénylscétamido)phénoxy] 3-terbutylamino 2-propanol] |  |  |  |  |  |  | -12 | -66 | -96 | -24 | 0 | -12 | -33 | -4 |  |  |  |  |  |  |  |
| CC(C)NCC(O)COc1ccc(NC(=O)Cc2ccsc2)cc1Cl (stereo not shown) [exemple 46, 1-[2-chloro 4-(3-thiénylacétamido)phénoxy] 3-isopro-pylamino 2-propanol] |  |  |  |  |  |  | -17 | -84 | -100 | -5 | -20 | -19 | -44 | -5 |  |  |  |  |  |  |  |

Reference: patent EP0071535B1, “(4-(2 and/or 3-Thienylacetamido)-phenoxy)-hydroxyaminopropanes, their preparation, their therapeutic use and intermediates” (CARPIBEM (CENTRE D'ACTIVITE ET DE RECHERCHE PHARMACEUTIQUE …, priority 1981, dated 1983)
